Test results from PMC6272504, “Inhibitory Effects of Neochamaejasmin B on P-Glycoprotein in MDCK-hMDR1 Cells and Molecular Docking of NCB Binding in P-Glycoprotein” (Molecules, 2015).

Target: T1, P-glycoprotein (Homo sapiens, UniProt P08183)
T1 construct: gene ABCB1
Assay: Rhodamine-123 accumulation kinetics (Lineweaver-Burk) and bidirectional transport in MDCK-hMDR1 cells
Format: cell-based

T1 sequence (P08183 whole entry): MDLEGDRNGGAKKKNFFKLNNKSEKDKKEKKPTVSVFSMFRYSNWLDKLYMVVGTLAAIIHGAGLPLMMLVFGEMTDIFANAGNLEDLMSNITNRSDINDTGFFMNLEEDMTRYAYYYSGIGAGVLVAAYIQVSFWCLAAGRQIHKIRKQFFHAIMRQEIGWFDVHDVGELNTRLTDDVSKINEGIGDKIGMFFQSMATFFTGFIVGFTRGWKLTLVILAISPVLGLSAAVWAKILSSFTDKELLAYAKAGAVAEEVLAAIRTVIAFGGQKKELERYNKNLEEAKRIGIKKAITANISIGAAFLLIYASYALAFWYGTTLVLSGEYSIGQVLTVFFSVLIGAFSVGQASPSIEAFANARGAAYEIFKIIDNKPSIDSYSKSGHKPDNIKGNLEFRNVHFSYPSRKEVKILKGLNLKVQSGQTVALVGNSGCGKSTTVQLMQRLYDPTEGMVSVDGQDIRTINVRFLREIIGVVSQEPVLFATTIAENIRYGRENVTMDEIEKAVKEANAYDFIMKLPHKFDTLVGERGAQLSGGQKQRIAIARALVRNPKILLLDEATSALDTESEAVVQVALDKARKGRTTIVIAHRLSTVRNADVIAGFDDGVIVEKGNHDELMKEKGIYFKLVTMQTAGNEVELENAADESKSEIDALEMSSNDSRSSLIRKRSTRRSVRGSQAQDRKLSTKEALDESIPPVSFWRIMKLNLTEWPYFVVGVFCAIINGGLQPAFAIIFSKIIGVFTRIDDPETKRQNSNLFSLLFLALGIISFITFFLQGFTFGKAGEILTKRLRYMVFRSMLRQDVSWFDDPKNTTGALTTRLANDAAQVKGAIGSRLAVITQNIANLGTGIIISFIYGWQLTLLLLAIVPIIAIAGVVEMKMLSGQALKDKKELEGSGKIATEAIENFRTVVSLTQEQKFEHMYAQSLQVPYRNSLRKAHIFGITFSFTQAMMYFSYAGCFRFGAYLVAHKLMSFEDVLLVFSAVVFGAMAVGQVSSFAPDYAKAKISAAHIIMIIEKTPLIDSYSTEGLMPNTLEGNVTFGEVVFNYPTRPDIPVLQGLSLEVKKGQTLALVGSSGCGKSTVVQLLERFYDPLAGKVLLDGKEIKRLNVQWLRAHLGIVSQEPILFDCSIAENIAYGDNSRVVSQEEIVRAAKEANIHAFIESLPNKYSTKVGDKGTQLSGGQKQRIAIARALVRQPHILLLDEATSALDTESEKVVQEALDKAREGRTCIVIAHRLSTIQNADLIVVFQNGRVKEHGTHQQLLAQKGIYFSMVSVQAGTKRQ

O=C1c2c(O)cc(O)cc2O[C@H](c2ccc(O)cc2)[C@@H]1[C@@H]1C(=O)c2c(O)cc(O)cc2O[C@H]1c1ccc(O)cc1 [NCB, Neochamaejasmin B] gave a Ki of 45.2 µM.
